Reference: patent US5716797A, “Stable two-part reagent for the measurement of creatine kinase activity” (Wako Pure Chemical Industries, Ltd., priority 1995, dated 1998)
Several values for one entry are separate records, joined by “and”; a condition that tells them apart may be missing. Identical values can stand only once. Like-named read-outs stand apart in the source and are kept apart here.

Legend:
[1] = target: T1, creatine kinase (CK) in human serum (Homo sapiens, UniProt P06732); assay: Inhibitory effect of oxidized products of SH compounds on CK activity (HK/G6PDH UV method, NAC 26 mM as reactivator); format: biochemical; conditions: for CK activity value / CK activity value, Average: 5 mM SH compound oxidized product; for CK activity value: NAC 26 mM, 37° C.; for CK activity value, Average: average of 5 samples; for activity at 5000 µM: read-out: CK activity, relative value
T1 construct: Five fresh human serum samples were used; from tissue; host or cells: fresh human serum
Protocol: Investigation on the inhibitory effect of oxidized products of SH compounds on CK activity
Thus, oxidized products of the SH compounds, respectively, were obtained.
NAC (26 mM) as CK reactivator, each 5 mM of SH compound oxidized product obtained above, 2.6 mM of ADP, 3.9 u/ml of HK (available from Oriental Yeast Co., Ltd.), 8.0 u/ml of G6PDH (available from Oriental Yeast Co., Ltd.), 2.6 mM of NADP, 21 mM of glucose, 10 mM of magnesium acetate, 6.5 mM of AMP, 0.013 mM of APSA, 0.1% (w/v) of sodium azide and 2 mM of EDTA-2Na were dissolved in 128 mM imidazole-acetate buffer (pH 6.7). The thus obtained solutions were adjusted to pH 6.7 with sodium hydroxide to obtain enzyme solutions.
An enzyme solution containing no SH compound oxidized product was prepared as a control standard solution.
(§1) Five fresh human serum samples were used.
(§2) To 8 μl of each sample was added 320 μl of each enzyme solution, followed by preincubation for 5 minutes. Then, 80 μl of the substrate solution was added to initiate the reaction and the change of absorbance per minute was measured for 3 minutes from 2 minutes after the addition of the substrate solution. The CK activity value was calculated from the molecular extinction coefficient of the NADPH produced.
(§3) As a measuring apparatus, an Autoanalyzer Hitachi Model 7150 was used, and the measurement was carried out at 37° C. by use of dual wavelength (λ1 =405 nm, λ2 =340 nm).
Tables 2 and 3 show the CK activity values of the 5 samples in each case and the average thereof.

[2] = system: creatine kinase (CK) in human serum; assay: CK activity measured with enzyme solutions containing SH compounds as CK reactivator, fresh and after 1 month of storage (Example 1 / Comparative Example 1); format: biochemical; conditions: for CK activity, relative value: NAC just after preparation = 100%
Protocol: The resulting solution was adjusted to pH 6.7 with sodium hydroxide and stored at a predetermined temperature for a predetermined period. The thus obtained solution were used as enzyme solutions.
as §1, §2, §3
Enzyme solutions were prepared in the same manner as in Example 1 by use of the same reagents as in Example 1 except for using a predetermined concentration(s) of one or two SH compounds properly selected from the above-mentioned CK reactivators, in place of the CK reactivator(s) used in Example 1.
CK activity was measured in the same manner as in Example 1.

[3] = average with enzyme solution containing no SH compound oxidized product = 100%, 5 mM oxidized product
[4] = Sample 1, enzyme solution just after preparation, TG 100 mM, 2ME 26 mM, 2MES 26 mM, NAC 26 mM
[5] = Sample 2, enzyme solution just after preparation, TG 100 mM, 2ME 26 mM, 2MES 26 mM, NAC 26 mM
[6] = Sample 2, enzyme solution stored at 10° C. for 1 month, TG 100, 2ME 26, 2MES 26, NAC 26, L-cysteine 6.5, GSH 12, TDG 5, DTT 6.5 mM
[7] = Sample 2, enzyme solution stored at 20° C. for 1 month, TG 100, 2ME 26, 2MES 26, NAC 26, L-cysteine 6.5, GSH 12, TDG 5, DTT 6.5 mM
[8] = Sample 3, enzyme solution just after preparation, TG 100 mM, 2ME 26 mM, 2MES 26 mM, NAC 26 mM
[9] = Sample 3, enzyme solution stored at 10° C. for 1 month, TG 100, 2ME 26, 2MES 26, NAC 26, L-cysteine 6.5, GSH 12, TDG 5, DTT 6.5 mM
[10] = Sample 3, enzyme solution stored at 20° C. for 1 month, TG 100, 2ME 26, 2MES 26, NAC 26, L-cysteine 6.5, GSH 12, TDG 5, DTT 6.5 mM
[11] = Sample 4, enzyme solution just after preparation, TG 100 mM, 2ME 26 mM, 2MES 26 mM, NAC 26 mM
[12] = Sample 4, enzyme solution stored at 10° C. for 1 month, TG 100, 2ME 26, 2MES 26, NAC 26, L-cysteine 6.5, GSH 12, TDG 5, DTT 6.5 mM
[13] = Sample 4, enzyme solution stored at 20° C. for 1 month, TG 100, 2ME 26, 2MES 26, NAC 26, L-cysteine 6.5, GSH 12, TDG 5, DTT 6.5 mM
[14] = Sample 5, enzyme solution just after preparation, TG 100 mM, 2ME 26 mM, 2MES 26 mM, NAC 26 mM
[15] = Sample 5, enzyme solution stored at 10° C. for 1 month, TG 100, 2ME 26, 2MES 26, NAC 26, L-cysteine 6.5, GSH 12, TDG 5, DTT 6.5 mM
[16] = Sample 5, enzyme solution stored at 20° C. for 1 month, TG 100, 2ME 26, 2MES 26, NAC 26, L-cysteine 6.5, GSH 12, TDG 5, DTT 6.5 mM
[17] = average of 5 samples, enzyme solution just after preparation, TG 100 mM, 2ME 26 mM, 2MES 26 mM, NAC 26 mM
[18] = average of 5 samples, enzyme solution stored at 10° C. for 1 month, TG 100, 2ME 26, 2MES 26, NAC 26, L-cysteine 6.5, GSH 12, TDG 5, DTT 6.5 mM
[19] = average of 5 samples, enzyme solution stored at 20° C. for 1 month, TG 100, 2ME 26, 2MES 26, NAC 26, L-cysteine 6.5, GSH 12, TDG 5, DTT 6.5 mM
[20] = enzyme solution just after preparation
[21] = enzyme solution stored at 10° C. for 1 month
[22] = enzyme solution stored at 20° C. for 1 month
[23] = Sample 1, enzyme solution stored at 20° C. for 1 month, TG 100, 2ME 26, 2MES 26, NAC 26, L-cysteine 6.5, GSH 12, TDG 5, DTT 6.5 mM
[24] = Sample 1, enzyme solution stored at 10° C. for 1 month, TG 100, 2ME 26, 2MES 26, NAC 26, L-cysteine 6.5, GSH 12, TDG 5, DTT 6.5 mM

T1 sequence (P06732 whole entry): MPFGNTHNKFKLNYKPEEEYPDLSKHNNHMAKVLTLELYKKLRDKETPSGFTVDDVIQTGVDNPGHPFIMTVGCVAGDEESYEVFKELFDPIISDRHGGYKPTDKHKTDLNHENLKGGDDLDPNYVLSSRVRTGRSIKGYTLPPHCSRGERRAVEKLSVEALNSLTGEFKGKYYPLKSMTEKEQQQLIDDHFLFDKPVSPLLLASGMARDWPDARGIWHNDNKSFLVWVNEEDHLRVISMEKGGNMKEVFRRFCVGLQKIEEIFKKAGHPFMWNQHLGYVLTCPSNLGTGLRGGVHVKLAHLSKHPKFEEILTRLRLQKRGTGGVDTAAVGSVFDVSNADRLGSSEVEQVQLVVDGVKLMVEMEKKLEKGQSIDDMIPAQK

inhibition of CK activity by oxidized product ([1]; 5 mM oxidized product) | CK activity value ([1]; Sample 1 (fresh human serum)) [IU/l.] | CK activity value ([1]; Sample 2) [IU/l.] | CK activity value ([1]; Sample 3) [IU/l.] | CK activity value ([1]; Sample 4) [IU/l.] | CK activity value ([1]; Sample 5) [IU/l.] | CK activity value, Average [1] [IU/l.] | activity at 5000 µM [1, 3] [%] | SMILES | CK activity value [2, 6] [IU/l] | CK activity value [2, 7] [IU/l] | CK activity value [2, 9] [IU/l] | CK activity value [2, 10] [IU/l] | CK activity value [2, 12] [IU/l] | CK activity value [2, 13] [IU/l] | CK activity value [2, 15] [IU/l] | CK activity value [2, 16] [IU/l] | CK activity value, Average [2, 18] [IU/l] | CK activity value, Average [2, 19] [IU/l] | CK activity, relative value [2, 21] [%] | CK activity, relative value [2, 22] [%] | other results
hardly inhibited CK activity | 150 | 407 | 108 | 319 | 99 | 216 | 95.9 | O[C@@H]1CSSC[C@H]1O (relative stereo) [DTT oxidized product] |  |  |  |  |  |  |  |  |  |  |  |  | 
hardly inhibited CK activity | 143 | 407 | 106 | 314 | 97 | 213 | 94.6 | O=c1ccnc(SSc2nccc(=O)[nH]2)[nH]1 [2-Thiouracil oxidized product] |  |  |  |  |  |  |  |  |  |  |  |  | 
 |  |  |  |  |  |  |  | OCCS [2ME, 2-mercaptoethanol] | 559 | 559 | 155 | 155 | 59 | 58 | 89 | 89 | 210 | 209 | 102.8 | 102.4 | retaining CK-reactivating ability for a long period of time in an aqueous solution [2]: capable of retaining CK-reactivating ability for a long period of time; CK activity value [2, 4]: 186 IU/l; CK activity value [2, 5]: 554 IU/l; CK activity value [2, 8]: 151 IU/l; CK activity value [2, 11]: 58 IU/l; CK activity value [2, 14]: 89 IU/l; CK activity value, Average [2, 17]: 208 IU/l; CK activity, relative value [2, 20]: 101.9%
hardly inhibited CK activity | 155 | 418 | 114 | 335 | 98 | 224 | 99.3 | O=S(=O)(O)CCSSCCS(=O)(=O)O [2MES oxidized product] |  |  |  |  |  |  |  |  |  |  |  |  | 
 |  |  |  |  |  |  |  | O=S(=O)(O)CCS [2MES, 2-mercaptoethanesulfonic acid] | 548 | 542 | 147 | 148 | 55 | 55 | 85 | 87 | 204 | 203 | 99.9 | 96.3 | CK activity value [2]: 184 IU/l; retaining CK-reactivating ability for a long period of time in an aqueous solution [2]: capable of retaining CK-reactivating ability for a long period of time; CK activity value [2, 4]: 184 IU/l; CK activity value [2, 23]: 181 IU/l; CK activity value [2, 5]: 553 IU/l; CK activity value [2, 8]: 151 IU/l; CK activity value [2, 11]: 58 IU/l; CK activity value [2, 14]: 88 IU/l; CK activity value, Average [2, 17]: 207 IU/l; CK activity, relative value [2, 20]: 101.4%
hardly inhibited CK activity | 161 | 407 | 106 | 322 | 97 | 217 | 96 | Nc1cc(O)nc(SSc2nc(N)cc(O)n2)n1 [AHMP oxidized product] |  |  |  |  |  |  |  |  |  |  |  |  | 
 | 0 | 1 | 0 | 1 | 0 | 0 | 0.2 | Nc1nc(SSc2nc(N)nc3c2ncn3[C@@H]2O[C@H](CO)[C@@H](O)[C@H]2O)c2ncn([C@@H]3O[C@H](CO)[C@@H](O)[C@H]3O)c2n1 [AMPR oxidized product] |  |  |  |  |  |  |  |  |  |  |  |  | 
 |  |  |  |  |  |  |  | N[C@@H](CCC(=O)N[C@@H](CS)C(=O)NCC(=O)O)C(=O)O [GSH, reduced-form glutathione] |  |  |  |  |  |  |  |  |  |  | 94.1 | 81.9 | CK activity value, Average [2]: 192 IU/l and 167 IU/l
 |  |  |  |  |  |  |  | N[C@@H](CS)C(=O)O [L-cysteine] | 437 | 175 | 110 | 33 | 42 | 12 | 63 | 19 | 158 | 58 | 77.5 | 28.4 | CK activity value [2, 24]: 140 IU/l; CK activity value [2, 23]: 52 IU/l
 |  |  |  |  |  |  |  | O.O.OC[C@H]1O[C@@H](S)[C@H](O)[C@@H](O)[C@@H]1O.[Na].[Na] [TDG, 1-thio-β-D-glucose disodium salt dihydrate] | 3 | 4 | 1 | 2 | 0 | 0 | 0 | 0 | 1 | 1 | 0.4 | 0.6 | retaining CK-reactivating ability for a long period of time in an aqueous solution [2]: incapable of retaining CK-reactivating ability in a solution for a long period of time; CK activity value [2, 24]: 0 IU/l; CK activity value [2, 23]: 0 IU/l

SMILES | inhibition of CK activity by oxidized product ([1]; 5 mM oxidized product) | CK activity value ([1]; Sample 1 (fresh human serum)) [IU/l.] | CK activity value ([1]; Sample 2) [IU/l.] | CK activity value ([1]; Sample 3) [IU/l.] | CK activity value ([1]; Sample 4) [IU/l.] | CK activity value ([1]; Sample 5) [IU/l.] | CK activity value, Average [1] [IU/l.] | activity at 5000 µM [1, 3] [%] | CK activity value [2, 6] [IU/l] | CK activity value [2, 7] [IU/l] | CK activity value [2, 9] [IU/l] | CK activity value [2, 10] [IU/l] | CK activity value [2, 12] [IU/l] | CK activity value [2, 13] [IU/l] | CK activity value [2, 15] [IU/l] | CK activity value [2, 16] [IU/l] | CK activity value, Average [2, 18] [IU/l] | CK activity value, Average [2, 19] [IU/l] | CK activity, relative value [2, 21] [%] | CK activity, relative value [2, 22] [%] | other results
OCCSSCCO [2ME oxidized product] | hardly inhibited CK activity | 155 | 427 | 113 | 332 | 101 | 226 |  |  |  |  |  |  |  |  |  |  |  |  |  | activity at 5000 µM [1]: 100%
